Test results taken from PMC4676015, “Variant fatty acid-like molecules Conjugation, novel approaches for extending the stability of therapeutic peptides” (Scientific Reports, 2015).

Target: T1, GLP-1 receptor (GLP-1R) (Rattus norvegicus, UniProt P32301)
T1 construct: endogenous in cells; host or cells: rat INS-1 cells
T1 sequence (P32301 22-463): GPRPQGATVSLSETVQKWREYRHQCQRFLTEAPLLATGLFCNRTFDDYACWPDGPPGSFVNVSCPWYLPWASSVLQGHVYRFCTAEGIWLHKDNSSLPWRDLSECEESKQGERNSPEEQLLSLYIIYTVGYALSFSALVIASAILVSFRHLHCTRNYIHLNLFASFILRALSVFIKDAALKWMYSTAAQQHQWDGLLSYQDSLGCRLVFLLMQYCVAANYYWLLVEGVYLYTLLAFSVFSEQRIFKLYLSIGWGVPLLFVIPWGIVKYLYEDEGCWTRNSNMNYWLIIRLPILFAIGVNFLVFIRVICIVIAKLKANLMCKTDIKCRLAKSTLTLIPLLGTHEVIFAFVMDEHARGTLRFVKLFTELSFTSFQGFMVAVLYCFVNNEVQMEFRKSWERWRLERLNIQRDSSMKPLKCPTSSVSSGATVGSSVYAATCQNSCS
Experiment: GLP-1 receptor binding assay (cellular ELISA)
Experimental: Cells were rinsed with PBS and fixed with 4% paraformaldehyde (Thermo Scientific) for 10 min at room temperature and quenched for 5 min with 2% glycine in PBS, pH 7.5. […] After a 2 h incubation at 37 °C in a final volume of 100 μl, the excess peptides were washed, and the cells were blocked with 5% BSA (BD Biosciences). […] Colorimetric changes were analyzed by reading the absorbance at 450 nm in a SpectraMax M5 (Molecular Device) microplate reader. The peptide concentration was plotted against UV absorbance, and the Kd was calculated using Origin 7.0 software.

Q: For `CCCCCCCCCCCCNC(=O)CC[C@H](NC(=O)[C@H](CC(C)C)NC(=O)[C@H](Cc1ccc(O)cc1)NC(=O)[C@H](CO)NC(=O)[C@H](CO)NC(=O)[C@@H](NC(=O)[C@H](CC(=O)O)NC(=O)[C@H](CO)NC(=O)[C@@H](NC(=O)[C@H](Cc1ccccc1)NC(=O)[C@@H](NC(=O)CNC(=O)[C@H](CCC(=O)O)NC(=O)[C@H](C)NC(=O)[C@@H](N)Cc1c[nH]cn1)[C@@H](C)O)[C@@H](C)O)C(C)C)C(=O)NCC(=O)N[C@@H](CCC(N)=O)C(=O)N[C@@H](C)C(=O)N[C@@H](C)C(=O)N[C@@H](CCCCN)C(=O)N[C@@H](CCC(=O)O)C(=O)N[C@@H](Cc1ccccc1)C(=O)N[C@H](C(=O)N[C@@H](C)C(=O)N[C@@H](Cc1c[nH]c2ccccc12)C(=O)N[C@@H](CC(C)C)C(=O)N[C@H](C(=O)N[C@@H](CCCCN)C(=O)NCC(=O)N[C@@H](CCCNC(=N)N)C(=O)NCC(=O)O)C(C)C)[C@@H](C)CC` [compound 14], which Kd is on record?
A: 18.4 ± 2.36 nM

Q: How did the Kd turn out when `CCCCCCCCCCCCCCCC(=O)NCCCC[C@H](NC(=O)[C@H](C)NC(=O)[C@H](C)NC(=O)[C@H](CCC(N)=O)NC(=O)CNC(=O)[C@H](CCC(=O)O)NC(=O)[C@H](CC(C)C)NC(=O)[C@H](Cc1ccc(O)cc1)NC(=O)[C@H](CO)NC(=O)[C@H](CO)NC(=O)[C@@H](NC(=O)[C@H](CC(=O)O)NC(=O)[C@H](CO)NC(=O)[C@@H](NC(=O)[C@H](Cc1ccccc1)NC(=O)[C@@H](NC(=O)CNC(=O)[C@H](CCC(=O)O)NC(=O)[C@H](C)NC(=O)[C@@H](N)Cc1c[nH]cn1)[C@@H](C)O)[C@@H](C)O)C(C)C)C(=O)N[C@@H](CCC(=O)O)C(=O)N[C@@H](Cc1ccccc1)C(=O)N[C@H](C(=O)N[C@@H](C)C(=O)N[C@@H](Cc1c[nH]c2ccccc12)C(=O)N[C@@H](CC(C)C)C(=O)N[C@H](C(=O)N[C@@H](CCCCN)C(=O)NCC(=O)N[C@@H](CCCNC(=N)N)C(=O)NCC(=O)O)C(C)C)[C@@H](C)CC` [compound 3] was run?
A: 33.8 ± 1.21 nM

Q: Which Kd does the source give for `CCCCCCCCNC(=O)C[C@H](NC(=O)[C@H](CO)NC(=O)[C@@H](NC(=O)[C@H](Cc1ccccc1)NC(=O)[C@@H](NC(=O)CNC(=O)[C@H](CCC(=O)O)NC(=O)[C@H](C)NC(=O)[C@@H](N)Cc1c[nH]cn1)[C@@H](C)O)[C@@H](C)O)C(=O)N[C@H](C(=O)N[C@@H](CO)C(=O)N[C@@H](CO)C(=O)N[C@@H](Cc1ccc(O)cc1)C(=O)N[C@@H](CC(C)C)C(=O)N[C@@H](CCC(=O)O)C(=O)NCC(=O)N[C@@H](CCC(N)=O)C(=O)N[C@@H](C)C(=O)N[C@@H](C)C(=O)N[C@@H](CCCCN)C(=O)N[C@@H](CCC(=O)O)C(=O)N[C@@H](Cc1ccccc1)C(=O)N[C@H](C(=O)N[C@@H](C)C(=O)N[C@@H](Cc1c[nH]c2ccccc12)C(=O)N[C@@H](CC(C)C)C(=O)N[C@H](C(=O)N[C@@H](CCCCN)C(=O)NCC(=O)N[C@@H](CCCNC(=N)N)C(=O)NCC(=O)O)C(C)C)[C@@H](C)CC)C(C)C` [compound 10] here?
A: 88.3 ± 3.27 nM

Q: Which Kd does the source give for `CCCCCCCCNC(=O)CC[C@H](NC(=O)[C@H](C)NC(=O)[C@@H](N)Cc1c[nH]cn1)C(=O)NCC(=O)N[C@H](C(=O)N[C@@H](Cc1ccccc1)C(=O)N[C@H](C(=O)N[C@@H](CO)C(=O)N[C@@H](CC(=O)O)C(=O)N[C@H](C(=O)N[C@@H](CO)C(=O)N[C@@H](CO)C(=O)N[C@@H](Cc1ccc(O)cc1)C(=O)N[C@@H](CC(C)C)C(=O)N[C@@H](CCC(=O)O)C(=O)NCC(=O)N[C@@H](CCC(N)=O)C(=O)N[C@@H](C)C(=O)N[C@@H](C)C(=O)N[C@@H](CCCCN)C(=O)N[C@@H](CCC(=O)O)C(=O)N[C@@H](Cc1ccccc1)C(=O)N[C@H](C(=O)N[C@@H](C)C(=O)N[C@@H](Cc1c[nH]c2ccccc12)C(=O)N[C@@H](CC(C)C)C(=O)N[C@H](C(=O)N[C@@H](CCCCN)C(=O)NCC(=O)N[C@@H](CCCNC(=N)N)C(=O)NCC(=O)O)C(C)C)[C@@H](C)CC)C(C)C)[C@@H](C)O)[C@@H](C)O` [compound 7] here?
A: 104 ± 3.42 nM

Q: With `CCCCCCCCCCCCCCCCNC(=O)C[C@H](NC(=O)[C@H](CO)NC(=O)[C@@H](NC(=O)[C@H](Cc1ccccc1)NC(=O)[C@@H](NC(=O)CNC(=O)[C@H](CCC(=O)O)NC(=O)[C@H](C)NC(=O)[C@@H](N)Cc1c[nH]cn1)[C@@H](C)O)[C@@H](C)O)C(=O)N[C@H](C(=O)N[C@@H](CO)C(=O)N[C@@H](CO)C(=O)N[C@@H](Cc1ccc(O)cc1)C(=O)N[C@@H](CC(C)C)C(=O)N[C@@H](CCC(=O)O)C(=O)NCC(=O)N[C@@H](CCC(N)=O)C(=O)N[C@@H](C)C(=O)N[C@@H](C)C(=O)N[C@@H](CCCCN)C(=O)N[C@@H](CCC(=O)O)C(=O)N[C@@H](Cc1ccccc1)C(=O)N[C@H](C(=O)N[C@@H](C)C(=O)N[C@@H](Cc1c[nH]c2ccccc12)C(=O)N[C@@H](CC(C)C)C(=O)N[C@H](C(=O)N[C@@H](CCCCN)C(=O)NCC(=O)N[C@@H](CCCNC(=N)N)C(=O)NCC(=O)O)C(C)C)[C@@H](C)CC)C(C)C` [compound 12] as the compound, how does the Kd read?
A: 84.6 ± 4.36 nM

Q: How did the Kd turn out when `CCCCCCCC(=O)NCCCC[C@H](NC(=O)[C@@H](NC(=O)[C@H](CC(C)C)NC(=O)[C@H](Cc1c[nH]c2ccccc12)NC(=O)[C@H](C)NC(=O)[C@@H](NC(=O)[C@H](Cc1ccccc1)NC(=O)[C@H](CCC(=O)O)NC(=O)[C@H](CCCCN)NC(=O)[C@H](C)NC(=O)[C@H](C)NC(=O)[C@H](CCC(N)=O)NC(=O)CNC(=O)[C@H](CCC(=O)O)NC(=O)[C@H](CC(C)C)NC(=O)[C@H](Cc1ccc(O)cc1)NC(=O)[C@H](CO)NC(=O)[C@H](CO)NC(=O)[C@@H](NC(=O)[C@H](CC(=O)O)NC(=O)[C@H](CO)NC(=O)[C@@H](NC(=O)[C@H](Cc1ccccc1)NC(=O)[C@@H](NC(=O)CNC(=O)[C@H](CCC(=O)O)NC(=O)[C@H](C)NC(=O)[C@@H](N)Cc1c[nH]cn1)[C@@H](C)O)[C@@H](C)O)C(C)C)[C@@H](C)CC)C(C)C)C(=O)NCC(=O)N[C@@H](CCCNC(=N)N)C(=O)NCC(=O)O` [compound 4] was run?
A: 15.4 ± 0.67 nM

Q: With `CCCCCCCC(=O)NCCCC[C@H](NC(=O)[C@H](C)NC(=O)[C@H](C)NC(=O)[C@H](CCC(N)=O)NC(=O)CNC(=O)[C@H](CCC(=O)O)NC(=O)[C@H](CC(C)C)NC(=O)[C@H](Cc1ccc(O)cc1)NC(=O)[C@H](CO)NC(=O)[C@H](CO)NC(=O)[C@@H](NC(=O)[C@H](CC(=O)O)NC(=O)[C@H](CO)NC(=O)[C@@H](NC(=O)[C@H](Cc1ccccc1)NC(=O)[C@@H](NC(=O)CNC(=O)[C@H](CCC(=O)O)NC(=O)[C@H](C)NC(=O)[C@@H](N)Cc1c[nH]cn1)[C@@H](C)O)[C@@H](C)O)C(C)C)C(=O)N[C@@H](CCC(=O)O)C(=O)N[C@@H](Cc1ccccc1)C(=O)N[C@H](C(=O)N[C@@H](C)C(=O)N[C@@H](Cc1c[nH]c2ccccc12)C(=O)N[C@@H](CC(C)C)C(=O)N[C@H](C(=O)N[C@@H](CCCCN)C(=O)NCC(=O)N[C@@H](CCCNC(=N)N)C(=O)NCC(=O)O)C(C)C)[C@@H](C)CC` [compound 1] as the compound, how does the Kd read?
A: 36.2 ± 0.95 nM

Q: `CCCCCCCCCCCCNC(=O)C[C@H](NC(=O)[C@@H](NC(=O)[C@H](CC(C)C)NC(=O)[C@H](Cc1c[nH]c2ccccc12)NC(=O)[C@H](C)NC(=O)[C@@H](NC(=O)[C@H](Cc1ccccc1)NC(=O)[C@H](CCC(=O)O)NC(=O)[C@H](CCCCN)NC(=O)[C@H](C)NC(=O)[C@H](C)NC(=O)[C@H](CCC(N)=O)NC(=O)CNC(=O)[C@H](CCC(=O)O)NC(=O)[C@H](CC(C)C)NC(=O)[C@H](Cc1ccc(O)cc1)NC(=O)[C@H](CO)NC(=O)[C@H](CO)NC(=O)[C@@H](NC(=O)[C@H](CC(=O)O)NC(=O)[C@H](CO)NC(=O)[C@@H](NC(=O)[C@H](Cc1ccccc1)NC(=O)[C@@H](NC(=O)CNC(=O)[C@H](CCC(=O)O)NC(=O)[C@H](C)NC(=O)[C@@H](N)Cc1c[nH]cn1)[C@@H](C)O)[C@@H](C)O)C(C)C)[C@@H](C)CC)C(C)C)C(=O)NCC(=O)N[C@@H](CCCNC(=N)N)C(=O)NCC(=O)O` [compound 20] was tested. Which Kd did it give?
A: 20.1 ± 1.97 nM

Q: `CCCCCCCCCCCC(=O)NCCCC[C@H](NC(=O)[C@@H](NC(=O)[C@H](CC(C)C)NC(=O)[C@H](Cc1c[nH]c2ccccc12)NC(=O)[C@H](C)NC(=O)[C@@H](NC(=O)[C@H](Cc1ccccc1)NC(=O)[C@H](CCC(=O)O)NC(=O)[C@H](CCCCN)NC(=O)[C@H](C)NC(=O)[C@H](C)NC(=O)[C@H](CCC(N)=O)NC(=O)CNC(=O)[C@H](CCC(=O)O)NC(=O)[C@H](CC(C)C)NC(=O)[C@H](Cc1ccc(O)cc1)NC(=O)[C@H](CO)NC(=O)[C@H](CO)NC(=O)[C@@H](NC(=O)[C@H](CC(=O)O)NC(=O)[C@H](CO)NC(=O)[C@@H](NC(=O)[C@H](Cc1ccccc1)NC(=O)[C@@H](NC(=O)CNC(=O)[C@H](CCC(=O)O)NC(=O)[C@H](C)NC(=O)[C@@H](N)Cc1c[nH]cn1)[C@@H](C)O)[C@@H](C)O)C(C)C)[C@@H](C)CC)C(C)C)C(=O)NCC(=O)N[C@@H](CCCNC(=N)N)C(=O)NCC(=O)O` [compound 5] was tested. Which Kd did it give?
A: 14.3 ± 1.1 nM
